According to PubChem BioAssay AID1963981 (Molecular Pharmacology Branch, DTP, NCI, 2024):
pIC50: −log10 of the molar value.

Test system: 354836-022-R-J1-PDC multicell spheroid viability
Assay: Anticancer human tumor 354836-022-R-J1-PDC patient-derived head and neck squamous cell carcinoma cell line growth inhibition [PI3K]
Settings: for pIC50: curve of first compound; for viability, T/C: stronger effect = lower value
How it was run: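 Stroma-containing spheroids: tumor line, pooled-donor HUVEC, hMSC. Treatments: targeted agents with PI3K inhibitors. Dosing: clinically relevant, half-log spacing, 10 microM ceiling without known Cmax. Read-out: cell viability.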

[1] = second compound 0.00316 µM, first compound 0.0316 µM
[2] = second compound 0.00316 µM, first compound 0.1 µM
[3] = second compound 0.01 µM, first compound 0.0316 µM
[4] = second compound 0.01 µM, first compound 0.1 µM
[5] = second compound 0.0316 µM, first compound 0.0316 µM
[6] = second compound 0.0316 µM, first compound 0.1 µM
[7] = second compound 0.1 µM, first compound 0.0316 µM
[8] = second compound 0.1 µM, first compound 0.1 µM
[9] = second compound 0.316 µM, first compound 0.0316 µM
[10] = second compound 0.316 µM, first compound 0.1 µM
[11] = second compound 1 µM, first compound 0.0316 µM
[12] = second compound 1 µM, first compound 0.1 µM
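Further: spheroids exposed to agents for seven days before the viability read.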

CC(=O)c1c(C)c2cnc(Nc3ccc(N4CCNCC4)cn3)nc2n(C2CCCC2)c1=O + COc1c(OCCCN2CCOCC2)ccc2c3n(c(=NC(=O)c4cnc(N)nc4)nc12)CCN3
pIC50 (second compound 0.00316 µM): < 7.00
pIC50 (second compound 0.01 µM): < 7.00
pIC50 (second compound 0.0316 µM): < 7.00
pIC50 (second compound 0.1 µM): < 7.00
pIC50 (second compound 0.316 µM): > 9.50
pIC50 (second compound 1 µM): > 9.50
viability, T/C (second compound 0.00316 µM, first compound 0.000316 µM): 115%
viability, T/C (second compound 0.00316 µM, first compound 0.001 µM): 116%
viability, T/C (second compound 0.00316 µM, first compound 0.00316 µM): 119%
viability, T/C (second compound 0.00316 µM, first compound 0.01 µM): 113%
viability, T/C [1]: 99.9%
viability, T/C [2]: 107%
viability, T/C (second compound 0.01 µM, first compound 0.000316 µM): 107%
viability, T/C (second compound 0.01 µM, first compound 0.001 µM): 121%
viability, T/C (second compound 0.01 µM, first compound 0.00316 µM): 93.7%
viability, T/C (second compound 0.01 µM, first compound 0.01 µM): 99.1%
viability, T/C [3]: 85.1%
viability, T/C [4]: 105%
viability, T/C (second compound 0.0316 µM, first compound 0.000316 µM): 78.7%
viability, T/C (second compound 0.0316 µM, first compound 0.001 µM): 92.1%
viability, T/C (second compound 0.0316 µM, first compound 0.00316 µM): 81.3%
viability, T/C (second compound 0.0316 µM, first compound 0.01 µM): 82.2%
viability, T/C [5]: 95.9%
viability, T/C [6]: 83.3%
viability, T/C (second compound 0.1 µM, first compound 0.000316 µM): 48.8%
viability, T/C (second compound 0.1 µM, first compound 0.001 µM): 54.3%
viability, T/C (second compound 0.1 µM, first compound 0.00316 µM): 57.6%
viability, T/C (second compound 0.1 µM, first compound 0.01 µM): 61.3%
viability, T/C [7]: 55.7%
viability, T/C [8]: 59.6%
viability, T/C (second compound 0.316 µM, first compound 0.000316 µM): 15.9%
viability, T/C (second compound 0.316 µM, first compound 0.001 µM): 16.5%
viability, T/C (second compound 0.316 µM, first compound 0.00316 µM): 12.5%
viability, T/C (second compound 0.316 µM, first compound 0.01 µM): 14.6%
viability, T/C [9]: 15.2%
viability, T/C [10]: 14.1%
viability, T/C (second compound 1 µM, first compound 0.000316 µM): 2.1%
viability, T/C (second compound 1 µM, first compound 0.001 µM): 1.43%
viability, T/C (second compound 1 µM, first compound 0.00316 µM): 1.73%
viability, T/C (second compound 1 µM, first compound 0.01 µM): 2.18%
viability, T/C [11]: 2.06%
viability, T/C [12]: 1.39%

CCCS(=O)(=O)Nc1ccc(F)c(C(=O)c2c[nH]c3ncc(-c4ccc(Cl)cc4)cc23)c1F + CC(Nc1ccc2c(c1)OCCn1cc(N3C(=O)OCC3C(F)F)nc1-2)C(N)=O
pIC50 (second compound 0.00316 µM): 5.16
pIC50 (second compound 0.01 µM): 5.22
pIC50 (second compound 0.0316 µM): 5.18
pIC50 (second compound 0.1 µM): 5.26
pIC50 (second compound 0.316 µM): 5.37
pIC50 (second compound 1 µM): 5.41
viability, T/C [1]: 103%
viability, T/C [2]: 131%
viability, T/C (second compound 0.00316 µM, first compound 0.316 µM): 107%
viability, T/C (second compound 0.00316 µM, first compound 1 µM): 92.7%
viability, T/C (second compound 0.00316 µM, first compound 3.16 µM): 90.5%
viability, T/C (second compound 0.00316 µM, first compound 10 µM): 32.7%
viability, T/C [3]: 106%
viability, T/C [4]: 93.2%
viability, T/C (second compound 0.01 µM, first compound 0.316 µM): 117%
viability, T/C (second compound 0.01 µM, first compound 1 µM): 90.5%
viability, T/C (second compound 0.01 µM, first compound 3.16 µM): 78.5%
viability, T/C (second compound 0.01 µM, first compound 10 µM): 27.5%
viability, T/C [5]: 95.6%
viability, T/C [6]: 111%
viability, T/C (second compound 0.0316 µM, first compound 0.316 µM): 95.2%
viability, T/C (second compound 0.0316 µM, first compound 1 µM): 105%
viability, T/C (second compound 0.0316 µM, first compound 3.16 µM): 93%
viability, T/C (second compound 0.0316 µM, first compound 10 µM): 24.8%
viability, T/C [7]: 85.8%
viability, T/C [8]: 73.5%
viability, T/C (second compound 0.1 µM, first compound 0.316 µM): 81.8%
viability, T/C (second compound 0.1 µM, first compound 1 µM): 86.3%
viability, T/C (second compound 0.1 µM, first compound 3.16 µM): 79.4%
viability, T/C (second compound 0.1 µM, first compound 10 µM): 18.6%
viability, T/C [9]: 69.6%
viability, T/C [10]: 68.2%
viability, T/C (second compound 0.316 µM, first compound 0.316 µM): 78.4%
viability, T/C (second compound 0.316 µM, first compound 1 µM): 84.5%
viability, T/C (second compound 0.316 µM, first compound 3.16 µM): 61.8%
viability, T/C (second compound 0.316 µM, first compound 10 µM): 15.1%
viability, T/C [11]: 54%
viability, T/C [12]: 54.1%
viability, T/C (second compound 1 µM, first compound 0.316 µM): 66.1%
viability, T/C (second compound 1 µM, first compound 1 µM): 55.5%
viability, T/C (second compound 1 µM, first compound 3.16 µM): 63.4%
viability, T/C (second compound 1 µM, first compound 10 µM): 11.1%
